# From paper PMC4387272, “Pharmacokinetic, pharmacodynamic and biomarker evaluation of transforming growth factor-β receptor I kinase inhibitor, galunisertib, in phase 1 study in patients with advanced cancer” (Investigational new drugs, 2014)
# Values joined by “and” are separate entries in the source; they are usually repeats but may differ in a detail not shown here. Identical values can stand only once. Marks after values point to notes of the source that are not given here.
# Key:
# [1] = system: glioma; experiment: Radiographic response / clinical benefit (RECIST, Macdonald criteria) in first-in-human dose study; assay type: in vivo; conditions: for Cycles (n) (best response): individual glioma patients with sequenced tumor; for CR/PR/SD ≥6 cycles, Low grade/secondary glioma / CR/PR/SD ≥6 cycles, Primary glioma: number of patients; for Clinical Benefit / No Clinical Benefit: Parts A and B
# Description: Starting with Cohort 3, only patients with relapsed and progressive glioma were eligible for this study. All patients were assessed for radiographic responses using Response Evaluation Criteria in Solid Tumors (RECIST) and, for glioma patients, using Macdonald criteria. All patients had to have an Eastern Cooperative Oncology Group performance status of ≤2. Patients were required to have adequate hematologic, hepatic, and renal function and discontinue all previous therapies for cancer at least 4 weeks prior to study enrollment. Exclusion criteria included medically uncontrolled cardiovascular illness, electrocardiogram anomalies, serious pre-existing medical conditions, and any unapproved therapy.
# • Part A was a dose escalation study using galunisertib monotherapy administered initially to patients with advanced or metastatic cancer as a daily continuous dosing. Starting with Cohort 3 and for the remainder of the study, patients received galunisertib on an intermittent dose regimen of 14 days on/14 days off for a 28-day cycle. • Part B was a safety study using galunisertib on an intermittent dose regimen at 160 mg/day (80 mg twice daily [BID]) and 300 mg/day (150 mg BID) in combination with lomustine given once every 6 weeks in patients with recurrent malignant glioma who had previously failed approved treatments. • Part C was a relative bioavailability (RBA) crossover study conducted at only one center to assess two new formulations (publication in preparation). All patients were then eligible to continue on 300 mg/day dosing. In this part of the study, patients with different tumor histologies were eligible to participate; the majority of patients had glioma. The only results from Part C presented in this publication are the results of the T cell subset examination. Other results will be published elsewhere.
# A power model was fitted to PK parameter estimates Cmax and AUC(0–24) to assess the extent of dose proportionality. Clinical benefit in this study has been defined as a patient with either a complete response (CR), partial response (PR), and stable disease (SD) ≥6 cycles. MAIP results from plasma samples taken at baseline were compared between patients completing >6 cycles and ≤6 cycles using ANOVA. The analysis included controlling the false discovery rate to 30 % using the Benjamini-Hochberg method. Boxplots showing the distributions at baseline of the potentially prognostic markers are provided. Observed TGF-β-stimulated pSMAD2 (pSMAD2^+) in PBMCs was normalized by TGF-β-stimulated tSMAD2 [(tSMAD2^+) ^0.6[9, 10]] prior to determining the minimum normalized pSMAD2^+ and calculating percentage inhibition post-baseline for each patient. Baseline and minimum post-baseline values for each patient together with maximum percentage inhibition are presented on a line and scatter plot for each patient in Cohort 3 and summary statistics by time point provided from a standard mixed effects regression model, fitting log normalized pSMAD2^+ to the fixed effects of log baseline normalized pSMAD2^+, nominal time point, dose and their interaction and patient as a random effect.
# In order to interpret protein and gene expression as potential prognostic factors we used the concept of clinical benefit based on radiographic response and/or stable disease for ≥6 cycles (Table 3).
# [2] = system: T cell subsets (CD3+, CD8+, CD4+, CD4+CD25+CD127-/LOFoxp3+); experiment: Flow cytometry for T cell subsets; assay type: in vivo, Human
# From the text: Blood samples were obtained and prepared for flow cytometry assessment following the instructions of Quintiles Laboratories (Durham, NC). After red blood cell lysis, cells were stained for CD3^+, CD8^+, CD4^+ and CD4^+CD25^+ CD127^−/LOFoxp3^+ and events were collected by flow cytometer per standard Quintiles procedures. All results were reported as absolute cell counts and as percentage of lymphocytes.
# An amendment was introduced to assess T cell subsets in Part B and Part C.
# [3] = system: MDC/CCL22; experiment: Multi-analyte immunoassay panel (MAIP) of plasma proteins; assay type: in vivo, Human; conditions: Part A and Part B, data not shown
# Description: Plasma samples were analyzed for PD assessments by using a multi-analyte immunoassay panel (MAIP) (Myriad RBM, Austin, TX). The MAIP measurements included 89 plasma proteins. These proteins were evaluated at baseline and during the first cycle of treatment.
# MDC/CCL22 is associated with modulating T regulatory cells and it may be involved in the activation of antigen-presenting cells. Whether such levels confer a better prognosis remains to be assessed. The lack of a change in MDC/CCL22 may perhaps indicate that this chemokine is not affected by galunisertib, but long-term examinations will be needed to further confirm this initial impression. Other plasma proteins were also found to be at different levels for patients treated with ≥6 cycles or ≤6 cycles.
# [4] = set-up: method as in PMID 24868575; conditions: population PK model, Cohorts 1 through 5; cited from earlier work
# [5] = system: ID1 and CD44; set-up: method as in PMID 21156287; conditions: 1 patient, surgical re-resection during off-period of intermittent dosing; cited from earlier work
# [6] = Part B, in combination with lomustine
# [7] = Part B, in combination with lomustine, n=26
# [8] = Primary glioma (n=13), IDH1/2 mutation
# [9] = Primary glioma (n=13), Other mutation
# [10] = Secondary or low grade glioma (n=8), IDH1/2 mutation
# [11] = Secondary or low grade glioma (n=8), Other mutation
smiles,measurement,setting,value
Cc1cccc(-c2nn3c(c2-c2ccnc4ccc(C(N)=O)cc24)CCC3)n1 [galunisertib],patients with primary glioblastoma showing radiographic responses or SD ≥6 cycles,"[1]; 3/13 patients, no IDH1 or IDH2 mutation",23%
same,patients with tumors not containing the EGFR variant treated for ≥6 cycles,[1]; 7/13 patients,54%
same,patients with tumors containing EGFR variants treated for <6 cycles,[1]; 8/8 patients (2 in Part A and 6 in Part B),100%
same,"patients with clinical benefit (CR, PR or SD ≥6 cycles)","[1]; 12 of 79 patients, all parts, all in glioma",15%
same,"cycles treated, patients still receiving galunisertib as of June 2014","[1]; Part A, 2 individual patients",73 cycles and 55 cycles
same,"Cycles on study treatment, median (range)","[1]; Part A, monotherapy, N=39",2 (1–46)
same,Cycles (n) (best response),"[1]; Part A, monotherapy",3 and 2 and 1 and 29 (CR) and 13 (PR) and 22 (PR) and 46 (CR) and 40 (SD)
same,CR/PR,"[1]; Part A, monotherapy, n=30",5 (16.7) n (%)
same,CR/PR/SD ≥6 cycles,"[1]; Part A, monotherapy, n=30",6 n (%) and 6 (20.0) n (%)
same,On study treatment at study closure in 2012,"[1]; Part A, monotherapy, n=30",2 (6.7) n (%)
same,"CR/PR/SD ≥6 cycles, Low grade/secondary glioma","[1]; Part A, monotherapy",3
same,"CR/PR/SD ≥6 cycles, Primary glioma","[1]; Part A, monotherapy",3
same,"cycles treated, patient still receiving galunisertib as of June 2014","[1]; Part B, 1 patient",48 cycles
same,"Cycles on study treatment, median (range)","[1]; Part B, in combination with lomustine, N=26",2 (1–22)
same,Cycles (n) (best response),[1]; [6],10 (PR) and 12 (SD) and 2 and 4 and 1
same,CR/PR,[1]; [7],2 (7.7) n (%)
same,CR/PR/SD ≥6 cycles,[1]; [7],6 ^* n (%) and 6 (23.1) ^* n (%)
same,On study treatment at study closure in 2012,[1]; [7],1 (3.8) n (%)
same,"CR/PR/SD ≥6 cycles, Low grade/secondary glioma",[1]; [6],4
same,"CR/PR/SD ≥6 cycles, Primary glioma",[1]; [6],2
same,Clinical Benefit,[1]; [8],0/13
same,No Clinical Benefit,[1]; [8],0/13
same,Clinical Benefit,[1]; [9],3/13
same,No Clinical Benefit,[1]; [9],10/13
same,Clinical Benefit,[1]; [10],4/8
same,No Clinical Benefit,[1]; [10],1/8
same,Clinical Benefit,[1]; [11],0/8
same,No Clinical Benefit,[1]; [11],3/8
same,patients with clinical benefit (CR/PR and SD ≥6 cycles) among patients with IDH1/2 mutation,[1]; of the 5 patients with IDH1/2 mutation,4 patients
same,lymphocyte counts and the respective subsets,[2]; [6],reduced
same,"counts of CD3+, CD8+, CD4+ and CD4+CD25+CD127−/LOFoxp3+ cells","[2]; Part C, monotherapy",either stabilized or increased
same,post-treatment plasma levels of MDC/CCL22,[3],did not show a change
same,mean population CL,[4],38 L/h
same,steady state volume of distribution (Vss),[4],210 L
same,expression of ID1 and CD44 in tumor tissue after treatment,[5],reduced
